Experimental data from patent US6307080A, “Water-soluble zinc pyruvates or their hydrates, method for the product ion thereof and their use” (SKW Trostberg Aktiengesellschaft, priority 1998, dated 2001).

What was measured:
Solubility = assay type: physicochemical; settings: product of Berzelius's instructions, identified as zinc parapyruvate
[1] = system: influenza A/Chile/1/83 or influenza B/Singapore/27/79 (viral hemagglutination of erythrocytes); assay: Inhibition of influenza-induced viral hemagglutination (vHAI) of erythrocytes (RBC); assay type: cell-based, influenza A and influenza B viruses; settings: Table 1; for IC50: read-out: HAI IC50
[2] = system: influenza A/Chile/1/83 or influenza B/Singapore/27/79 in MDCK cells; assay type: cell-based, influenza A and influenza B viruses; settings: Table 1; for Plaque (plaque reduction assay): concentration in plaque reduction assay, MDCK cells, 30 min treatment; for Plaque Reduction: percentage reduction in number of plaque per unit volume (well), 30 min
macrophages [3] = assay: Inhibition of superoxide (HO2) release from activated macrophages (cytochrome C reduction); assay type: cell-based; settings: in words
macrophages [4] = assay: Binding/association of zinc pyruvate to macrophages (equilibrium dialysis)
type II diabetics = settings: cited from earlier work

Compound | Potency HAI [1] | Plaque (plaque reduction assay) [2] | Plaque Reduction [2] | IC50 [1] | other results
CC(O)(CC(=O)C(=O)[O-])C(=O)[O-].[Zn+2] (centres unmarked) [zinc parapyruvate] | – | – | – | – | solubility (Solubility): sparingly soluble
O.[O]=[Zn] [ZnO.H2 O] | 4.5 | 1700 µM | 15% | – | –
CC(=O)[O-].CC(=O)[O-].[Zn+2] [Zn(Ac)2] | 6.0 | 1700 µM | 15% | 150 µM | –
zinc pyruvate | 19.9 | 90.5 µM | 67% | 25.3 µM | lysis of RBC cells begins at (erythrocytes (RBC)): 1000 µg/mL; inhibitory effect on the release of HO2 (respiratory burst activity) (macrophages [3]): regulatory and in part inhibitory effect; binding constant (macrophages [4]; macrophages, cell count of 10^5, read-out: binding constant determined by equilibrium dialysis): 150 nM; association constant of zinc pyruvate to the macrophages (macrophages [4]; under these in-vitro conditions): 150 nM
[Zn] [zinc] | – | – | – | – | average fasting blood sugar (type II diabetics; after administration of zinc for 6 weeks, decrease from 250, Perger and coworkers): 142 mg %; fasting and postprandial blood sugar level (type II diabetics; other studies, zinc administration): decreases markedly
[O]=[Zn] [ZnO.H2 O] | – | – | – | ~200 µM | –
[Cl-].[Cl-].[Zn+2] [ZnCl2] | 5.0 | 1200 µM | 20% | 100 µM | –
